Source: PubChem BioAssay AID2060895 (Molecular Pharmacology Branch, DTP, NCI, 2025)

System: PDC 899932-113-R3-J6 complex spheroid viability
Experiment: Anticancer human tumor 899932-113-R3-J6-PDC patient-derived melanoma cell line growth inhibition [RAS]
Conditions: for IC50: curve of first compound; for viability, T/C: stronger effect = lower value
Outline: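 Multi-cell-type spheroids: tumor cells plus HUVEC endothelial cells and mesenchymal stem cells. RAS-pathway inhibitors were combined with targeted agents, each dosed in half-log steps down from clinical Cmax, or from 10 microM when Cmax was unknown.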

[1] = second compound 0.00316 µM, first compound 0.000949 µM
[2] = second compound 0.00316 µM, first compound 0.003 µM
[3] = second compound 0.00316 µM, first compound 0.00949 µM
[4] = second compound 0.00316 µM, first compound 0.03 µM
[5] = second compound 0.00316 µM, first compound 0.0949 µM
[6] = second compound 0.00316 µM, first compound 0.3 µM
[7] = second compound 0.01 µM, first compound 0.000949 µM
[8] = second compound 0.01 µM, first compound 0.003 µM
[9] = second compound 0.01 µM, first compound 0.00949 µM
[10] = second compound 0.01 µM, first compound 0.03 µM
[11] = second compound 0.01 µM, first compound 0.0949 µM
[12] = second compound 0.01 µM, first compound 0.3 µM
[13] = second compound 0.0316 µM, first compound 0.000949 µM
[14] = second compound 0.0316 µM, first compound 0.003 µM
[15] = second compound 0.0316 µM, first compound 0.00949 µM
[16] = second compound 0.0316 µM, first compound 0.03 µM
[17] = second compound 0.0316 µM, first compound 0.0949 µM
[18] = second compound 0.0316 µM, first compound 0.3 µM
[19] = second compound 0.1 µM, first compound 0.000949 µM
[20] = second compound 0.1 µM, first compound 0.003 µM
[21] = second compound 0.1 µM, first compound 0.00949 µM
[22] = second compound 0.1 µM, first compound 0.03 µM
[23] = second compound 0.1 µM, first compound 0.0949 µM
[24] = second compound 0.1 µM, first compound 0.3 µM
[25] = second compound 0.316 µM, first compound 0.000949 µM
[26] = second compound 0.316 µM, first compound 0.003 µM
[27] = second compound 0.316 µM, first compound 0.00949 µM
[28] = second compound 0.316 µM, first compound 0.03 µM
[29] = second compound 0.316 µM, first compound 0.0949 µM
[30] = second compound 0.316 µM, first compound 0.3 µM
[31] = second compound 1 µM, first compound 0.000949 µM
[32] = second compound 1 µM, first compound 0.003 µM
[33] = second compound 1 µM, first compound 0.00949 µM
[34] = second compound 1 µM, first compound 0.03 µM
[35] = second compound 1 µM, first compound 0.0949 µM
[36] = second compound 1 µM, first compound 0.3 µM
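For viability, T/C in this document: spheroids exposed to agents for seven days before readout; 100% = DMSO vehicle control wells.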

CC(=O)OC12COC1CC(O)C1(C)C(=O)C(O)C3=C(C)C(OC(=O)C(O)C(NC(=O)OC(C)(C)C)c4ccccc4)CC(O)(C(OC(=O)c4ccccc4)C21)C3(C)C (stereo unspecified) + C=CC(=O)N1CCN(c2nc(OCC3CCCN3C)nc3c(F)c(-c4nc(N)cc(C)c4C(F)(F)F)c(Cl)cc23)C(C)C1
IC50 (second compound 0.00316 µM): < 31.6 nM
IC50 (second compound 0.01 µM): < 31.6 nM
IC50 (second compound 0.0316 µM): < 31.6 nM
IC50 (second compound 0.1 µM): < 31.6 nM
IC50 (second compound 0.316 µM): < 31.6 nM
IC50 (second compound 1 µM): < 31.6 nM
viability, T/C (second compound 0.00316 µM, first compound 0.0316 µM): 30.5%
viability, T/C (second compound 0.00316 µM, first compound 0.1 µM): 30.6%
viability, T/C (second compound 0.00316 µM, first compound 0.316 µM): 40%
viability, T/C (second compound 0.00316 µM, first compound 1 µM): 46.4%
viability, T/C (second compound 0.00316 µM, first compound 3.16 µM): 69.7%
viability, T/C (second compound 0.00316 µM, first compound 10 µM): 82.1%
viability, T/C (second compound 0.01 µM, first compound 0.0316 µM): 31.2%
viability, T/C (second compound 0.01 µM, first compound 0.1 µM): 36.1%
viability, T/C (second compound 0.01 µM, first compound 0.316 µM): 39.6%
viability, T/C (second compound 0.01 µM, first compound 1 µM): 57.3%
viability, T/C (second compound 0.01 µM, first compound 3.16 µM): 49.5%
viability, T/C (second compound 0.01 µM, first compound 10 µM): 76.6%
viability, T/C (second compound 0.0316 µM, first compound 0.0316 µM): 31%
viability, T/C (second compound 0.0316 µM, first compound 0.1 µM): 43.6%
viability, T/C (second compound 0.0316 µM, first compound 0.316 µM): 42.2%
viability, T/C (second compound 0.0316 µM, first compound 1 µM): 48.4%
viability, T/C (second compound 0.0316 µM, first compound 3.16 µM): 68.3%
viability, T/C (second compound 0.0316 µM, first compound 10 µM): 60.8%
viability, T/C (second compound 0.1 µM, first compound 0.0316 µM): 34.5%
viability, T/C (second compound 0.1 µM, first compound 0.1 µM): 37.2%
viability, T/C (second compound 0.1 µM, first compound 0.316 µM): 34.2%
viability, T/C (second compound 0.1 µM, first compound 1 µM): 50.4%
viability, T/C (second compound 0.1 µM, first compound 3.16 µM): 73.6%
viability, T/C (second compound 0.1 µM, first compound 10 µM): 74%
viability, T/C (second compound 0.316 µM, first compound 0.0316 µM): 27.6%
viability, T/C (second compound 0.316 µM, first compound 0.1 µM): 34.3%
viability, T/C (second compound 0.316 µM, first compound 0.316 µM): 44.8%
viability, T/C (second compound 0.316 µM, first compound 1 µM): 47.1%
viability, T/C (second compound 0.316 µM, first compound 3.16 µM): 75.1%
viability, T/C (second compound 0.316 µM, first compound 10 µM): 79%
viability, T/C (second compound 1 µM, first compound 0.0316 µM): 31.5%
viability, T/C (second compound 1 µM, first compound 0.1 µM): 37.1%
viability, T/C (second compound 1 µM, first compound 0.316 µM): 38.8%
viability, T/C (second compound 1 µM, first compound 1 µM): 51%
viability, T/C (second compound 1 µM, first compound 3.16 µM): 68.5%
viability, T/C (second compound 1 µM, first compound 10 µM): 69.2%

CC1(C)CCC(Nc2ncc(C(F)(F)F)c(-c3c[nH]c4c(P(C)(C)=O)c(C#N)ccc34)n2)CN1 (stereo unspecified) + C=CC(=O)N1CCN(c2nc(OCC3CCCN3C)nc3c(F)c(-c4nc(N)cc(C)c4C(F)(F)F)c(Cl)cc23)C(C)C1
IC50 (second compound 0.00316 µM): 8.77 nM
IC50 (second compound 0.01 µM): 9.74 nM
IC50 (second compound 0.0316 µM): 11 nM
IC50 (second compound 0.1 µM): 8.56 nM
IC50 (second compound 0.316 µM): 9.45 nM
IC50 (second compound 1 µM): 8.03 nM
viability, T/C [1]: 105%
viability, T/C [2]: 73%
viability, T/C [3]: 51.5%
viability, T/C [4]: 25.9%
viability, T/C [5]: 16.4%
viability, T/C [6]: 8.68%
viability, T/C [7]: 96.8%
viability, T/C [8]: 79.2%
viability, T/C [9]: 48%
viability, T/C [10]: 30.5%
viability, T/C [11]: 16.4%
viability, T/C [12]: 11.2%
viability, T/C [13]: 102%
viability, T/C [14]: 75.3%
viability, T/C [15]: 56.3%
viability, T/C [16]: 29.9%
viability, T/C [17]: 15.4%
viability, T/C [18]: 8.82%
viability, T/C [19]: 94.8%
viability, T/C [20]: 68%
viability, T/C [21]: 51.4%
viability, T/C [22]: 28.1%
viability, T/C [23]: 16.4%
viability, T/C [24]: 8.6%
viability, T/C [25]: 107%
viability, T/C [26]: 73.9%
viability, T/C [27]: 52.9%
viability, T/C [28]: 30.4%
viability, T/C [29]: 12.2%
viability, T/C [30]: 9.67%
viability, T/C [31]: 95.1%
viability, T/C [32]: 71.7%
viability, T/C [33]: 47.4%
viability, T/C [34]: 25.7%
viability, T/C [35]: 10.5%
viability, T/C [36]: 10.9%

CCc1c2c(nc3ccc(O)cc13)-c1cc3c(c(=O)n1C2)COC(=O)[C@]3(O)CC + C=CC(=O)N1CCN(c2nc(OCC3CCCN3C)nc3c(F)c(-c4nc(N)cc(C)c4C(F)(F)F)c(Cl)cc23)C(C)C1
IC50 (second compound 0.00316 µM): 19.6 nM
IC50 (second compound 0.01 µM): 24.3 nM
IC50 (second compound 0.0316 µM): 33.1 nM
IC50 (second compound 0.1 µM): 30.3 nM
IC50 (second compound 0.316 µM): 29.4 nM
IC50 (second compound 1 µM): 31.8 nM
viability, T/C [1]: 89.8%
viability, T/C [2]: 65.9%
viability, T/C [3]: 57.6%
viability, T/C [4]: 48.6%
viability, T/C [5]: 39.2%
viability, T/C [6]: 36%
viability, T/C [7]: 92.8%
viability, T/C [8]: 67.4%
viability, T/C [9]: 59.2%
viability, T/C [10]: 50.2%
viability, T/C [11]: 43%
viability, T/C [12]: 36.4%
viability, T/C [13]: 93.5%
viability, T/C [14]: 78%
viability, T/C [15]: 59.9%
viability, T/C [16]: 51%
viability, T/C [17]: 43.9%
viability, T/C [18]: 30.3%
viability, T/C [19]: 102%
viability, T/C [20]: 69.5%
viability, T/C [21]: 61.3%
viability, T/C [22]: 55.7%
viability, T/C [23]: 43.2%
viability, T/C [24]: 38.4%
viability, T/C [25]: 95.6%
viability, T/C [26]: 71.7%
viability, T/C [27]: 58.6%
viability, T/C [28]: 54.1%
viability, T/C [29]: 43%
viability, T/C [30]: 34.4%
viability, T/C [31]: 96.5%
viability, T/C [32]: 75%
viability, T/C [33]: 59.9%
viability, T/C [34]: 51.7%
viability, T/C [35]: 44.6%
viability, T/C [36]: 34.3%
